Activity calls are given as the source filed them.
How the values were obtained:
Aurora kinase B = Aurora kinase B (Homo sapiens, UniProt Q96GD4)
[1] = molecular target: Cyclin-dependent kinase 4 (Homo sapiens, UniProt P11802)
[2] = molecular target: T1, NUAK family SNF1-like kinase 2 (Homo sapiens, UniProt Q9H093)
T1 sequence (Q9H093 whole entry): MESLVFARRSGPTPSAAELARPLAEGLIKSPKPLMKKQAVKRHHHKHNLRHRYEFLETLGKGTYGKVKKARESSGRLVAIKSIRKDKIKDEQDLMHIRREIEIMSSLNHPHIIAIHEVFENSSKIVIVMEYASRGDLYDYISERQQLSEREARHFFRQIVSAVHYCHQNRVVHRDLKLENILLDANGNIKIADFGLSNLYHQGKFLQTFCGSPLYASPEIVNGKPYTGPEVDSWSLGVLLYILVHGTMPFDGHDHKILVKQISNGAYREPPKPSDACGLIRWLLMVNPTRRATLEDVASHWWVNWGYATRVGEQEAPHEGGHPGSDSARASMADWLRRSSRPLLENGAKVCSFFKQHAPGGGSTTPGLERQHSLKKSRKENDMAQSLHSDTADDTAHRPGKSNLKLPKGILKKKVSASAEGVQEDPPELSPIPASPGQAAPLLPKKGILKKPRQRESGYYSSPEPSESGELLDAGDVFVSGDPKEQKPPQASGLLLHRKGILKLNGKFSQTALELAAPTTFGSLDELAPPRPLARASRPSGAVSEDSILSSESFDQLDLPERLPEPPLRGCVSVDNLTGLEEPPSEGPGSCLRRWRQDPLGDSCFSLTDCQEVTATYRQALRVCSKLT

[3] = molecular target: Serine/threonine-protein kinase N2 (Homo sapiens, UniProt Q16513)
Serine/threonine-protein kinase N2, sequence (Q16513 whole entry): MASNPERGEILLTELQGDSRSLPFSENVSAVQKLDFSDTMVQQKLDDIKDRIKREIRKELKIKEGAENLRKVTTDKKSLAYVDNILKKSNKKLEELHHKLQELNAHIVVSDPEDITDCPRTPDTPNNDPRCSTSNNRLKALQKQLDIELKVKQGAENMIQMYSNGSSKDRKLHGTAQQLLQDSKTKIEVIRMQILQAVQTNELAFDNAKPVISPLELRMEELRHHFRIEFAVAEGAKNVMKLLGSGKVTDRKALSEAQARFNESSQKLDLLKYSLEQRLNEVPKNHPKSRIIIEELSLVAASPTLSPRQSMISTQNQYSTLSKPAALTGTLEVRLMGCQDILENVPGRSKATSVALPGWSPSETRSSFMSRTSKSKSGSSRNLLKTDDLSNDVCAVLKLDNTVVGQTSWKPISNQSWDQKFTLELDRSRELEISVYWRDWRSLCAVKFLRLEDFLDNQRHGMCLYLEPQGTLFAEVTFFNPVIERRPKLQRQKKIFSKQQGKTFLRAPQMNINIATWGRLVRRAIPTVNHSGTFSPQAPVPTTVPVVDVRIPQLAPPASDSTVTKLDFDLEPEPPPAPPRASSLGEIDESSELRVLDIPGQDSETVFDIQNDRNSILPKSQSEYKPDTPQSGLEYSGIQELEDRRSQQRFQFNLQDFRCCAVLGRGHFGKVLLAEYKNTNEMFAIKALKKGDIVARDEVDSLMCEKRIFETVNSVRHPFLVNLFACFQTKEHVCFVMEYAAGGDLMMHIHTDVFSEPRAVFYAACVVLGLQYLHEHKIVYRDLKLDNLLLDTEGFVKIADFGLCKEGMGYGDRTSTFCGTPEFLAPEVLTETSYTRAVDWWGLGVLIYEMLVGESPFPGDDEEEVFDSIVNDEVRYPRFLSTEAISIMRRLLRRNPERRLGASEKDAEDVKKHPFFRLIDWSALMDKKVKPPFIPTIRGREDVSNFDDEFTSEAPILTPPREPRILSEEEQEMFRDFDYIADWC

[4] = molecular target: T2, Serine/threonine-protein kinase D3 (Homo sapiens, UniProt O94806)
T2 sequence (O94806 whole entry): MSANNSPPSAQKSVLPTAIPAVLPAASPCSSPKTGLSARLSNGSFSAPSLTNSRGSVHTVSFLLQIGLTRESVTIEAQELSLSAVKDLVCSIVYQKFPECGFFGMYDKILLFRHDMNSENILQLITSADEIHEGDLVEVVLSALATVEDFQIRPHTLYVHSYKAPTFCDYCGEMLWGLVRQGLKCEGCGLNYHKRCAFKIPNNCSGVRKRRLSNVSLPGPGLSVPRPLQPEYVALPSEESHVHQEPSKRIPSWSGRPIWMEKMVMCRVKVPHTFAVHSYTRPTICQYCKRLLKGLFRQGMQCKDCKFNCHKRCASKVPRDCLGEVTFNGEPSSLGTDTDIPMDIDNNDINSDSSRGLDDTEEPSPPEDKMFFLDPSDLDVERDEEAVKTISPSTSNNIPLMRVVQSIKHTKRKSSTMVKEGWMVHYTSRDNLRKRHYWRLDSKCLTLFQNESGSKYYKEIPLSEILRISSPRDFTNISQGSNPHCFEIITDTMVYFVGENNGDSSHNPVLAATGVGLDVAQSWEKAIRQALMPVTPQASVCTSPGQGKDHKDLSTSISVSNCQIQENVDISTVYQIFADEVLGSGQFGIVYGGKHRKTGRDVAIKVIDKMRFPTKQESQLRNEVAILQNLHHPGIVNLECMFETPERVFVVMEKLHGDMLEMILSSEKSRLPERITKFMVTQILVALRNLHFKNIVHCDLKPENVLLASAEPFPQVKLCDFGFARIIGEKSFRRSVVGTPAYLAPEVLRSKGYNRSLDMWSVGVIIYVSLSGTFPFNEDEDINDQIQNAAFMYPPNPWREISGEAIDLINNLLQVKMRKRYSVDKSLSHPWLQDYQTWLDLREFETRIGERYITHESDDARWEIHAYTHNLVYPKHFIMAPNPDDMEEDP

[5] = molecular target: T3, STE20-related kinase adapter protein alpha (Homo sapiens, UniProt Q7RTN6)
T3 sequence (Q7RTN6 whole entry): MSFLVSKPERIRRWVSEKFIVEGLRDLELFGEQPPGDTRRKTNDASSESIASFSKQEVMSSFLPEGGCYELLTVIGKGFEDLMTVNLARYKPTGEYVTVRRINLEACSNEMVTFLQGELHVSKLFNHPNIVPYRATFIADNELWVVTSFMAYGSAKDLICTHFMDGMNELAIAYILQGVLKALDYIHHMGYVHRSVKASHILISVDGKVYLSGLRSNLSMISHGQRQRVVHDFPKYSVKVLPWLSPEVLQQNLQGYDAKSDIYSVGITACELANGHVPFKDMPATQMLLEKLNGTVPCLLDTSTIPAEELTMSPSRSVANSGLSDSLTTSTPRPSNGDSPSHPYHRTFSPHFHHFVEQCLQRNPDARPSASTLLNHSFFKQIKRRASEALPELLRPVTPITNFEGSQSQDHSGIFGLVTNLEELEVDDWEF

[6] = molecular target: T4, Tyrosine--tRNA ligase, cytoplasmic (Homo sapiens, UniProt P54577)
T4 sequence (P54577 whole entry): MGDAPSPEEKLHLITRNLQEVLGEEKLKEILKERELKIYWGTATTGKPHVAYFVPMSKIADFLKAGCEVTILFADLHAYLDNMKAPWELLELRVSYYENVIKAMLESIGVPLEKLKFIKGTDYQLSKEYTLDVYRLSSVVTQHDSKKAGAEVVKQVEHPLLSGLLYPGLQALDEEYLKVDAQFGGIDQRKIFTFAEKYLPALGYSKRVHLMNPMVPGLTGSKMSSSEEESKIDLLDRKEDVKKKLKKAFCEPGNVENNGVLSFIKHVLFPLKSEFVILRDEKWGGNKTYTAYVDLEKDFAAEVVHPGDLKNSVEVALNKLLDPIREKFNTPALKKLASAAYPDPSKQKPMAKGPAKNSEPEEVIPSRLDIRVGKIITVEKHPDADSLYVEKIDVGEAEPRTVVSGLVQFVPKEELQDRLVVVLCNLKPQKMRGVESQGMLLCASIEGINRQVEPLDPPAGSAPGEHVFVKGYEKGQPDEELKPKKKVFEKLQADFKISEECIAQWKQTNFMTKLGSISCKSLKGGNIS
Also: in the data inactive means no Kd found up to 30 µM.

Cyclin-dependent kinase 4, sequence (P11802 whole entry): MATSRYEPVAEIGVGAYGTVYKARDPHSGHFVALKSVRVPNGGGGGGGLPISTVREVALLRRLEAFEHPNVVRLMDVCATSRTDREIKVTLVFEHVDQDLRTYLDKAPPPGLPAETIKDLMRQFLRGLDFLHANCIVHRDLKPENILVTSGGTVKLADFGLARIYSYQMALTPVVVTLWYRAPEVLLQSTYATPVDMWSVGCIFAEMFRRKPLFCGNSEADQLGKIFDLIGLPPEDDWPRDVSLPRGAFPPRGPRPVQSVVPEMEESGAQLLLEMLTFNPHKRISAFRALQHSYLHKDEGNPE
Aurora kinase B, sequence (Q96GD4 whole entry): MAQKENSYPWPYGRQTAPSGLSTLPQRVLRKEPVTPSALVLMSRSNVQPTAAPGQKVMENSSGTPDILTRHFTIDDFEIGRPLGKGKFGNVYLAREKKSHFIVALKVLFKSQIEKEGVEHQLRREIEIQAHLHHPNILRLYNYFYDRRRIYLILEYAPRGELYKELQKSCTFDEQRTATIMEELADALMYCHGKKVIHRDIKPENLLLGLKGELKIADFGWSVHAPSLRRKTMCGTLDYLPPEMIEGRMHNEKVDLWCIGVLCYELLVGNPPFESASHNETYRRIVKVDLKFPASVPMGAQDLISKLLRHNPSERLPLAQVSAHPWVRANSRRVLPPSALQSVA

Compound	Kd (Aurora kinase B)	Kd [1]	Kd [2]	Kd [3]	Kd [4]	Kd [5]	Kd [6]
C[C@@H]1CN(Cc2ccc(F)cc2)[C@@H](C)CN1C(=O)c1cc2c(C(=O)C(=O)N(C)C)cn(C)c2cc1Cl [TALMAPIMOD]	> 30 µM (inactive)	> 30 µM (inactive)	> 30 µM (inactive)	> 30 µM (inactive)	> 30 µM (inactive)	> 30 µM (inactive)	> 30 µM (inactive)
Cc1cc(-c2cc(O)ccc2Cl)cc2nnc(Nc3ccc(OCCN4CCCC4)cc3)nc12	> 30 µM (inactive)	> 30 µM (inactive)	> 30 µM (inactive)	> 30 µM (inactive)	0.003 µM	> 30 µM (inactive)	> 30 µM (inactive)
COc1cc(CCc2cc(NC(=O)c3ccc(N4C[C@@H](C)N[C@@H](C)C4)cc3)n[nH]2)cc(OC)c1 [AZD-4547]	1.67 µM	> 30 µM (inactive)	> 30 µM (inactive)	> 30 µM (inactive)	> 30 µM (inactive)	> 30 µM (inactive)	> 30 µM (inactive)
